The values that follow come from ChEMBL document CHEMBL1201862, “PubChem BioAssay data set” (2004).

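Test compounds were applied to cells in 96-well plates for 48 hours at 5 doses. GI50 = concentration required for 50% inhibition of growth.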 Activity calls are given as the source filed them. No stated cut-off is given here; in the data, active = GI50 up to about 1.1 µM and inactive = higher. Where a SMILES comes first, the peptide text is derived from it. The star is where a group is joined. Fmoc = O=C(OCC1c2ccccc2-c2ccccc21)*; OBn = c1ccc(CO*)cc1; tBu = CC(C)(C)*

Among the test systems are MDA-MB-231; MOLT-4; MDA-N; A498; UACC-62; SK-MEL-28; RXF 393; CAKI-1; 786-0; RPMI-8226; M14; Hs-578T; SR; CCRF-CEM; LOX IMVI; OVCAR-3; OVCAR-8; NCI/ADR-RES; SF-268; DLD-1.
Holding throughout (test): NCI anticancer screen, dose series, 48 h

For `Nc1cccc(OCc2nc(N)nc(N)c2-c2ccc(Cl)cc2)c1`, the GI50 is > 100 µM (inactive) with MDA-MB-231; 26.1 µM (inactive) in the test on MOLT-4; 42.1 µM (inactive) in the test on MDA-N; 39.4 µM (inactive) in the test with A498; 62.2 µM (inactive) in the test with UACC-62; 70 µM (inactive) in the test with SK-MEL-28. For the same compound, the GI50 in the test on RXF 393 is 60 µM (inactive); in the test on CAKI-1, 46.7 µM (inactive); with 786-0, 53.5 µM (inactive); in the test on RPMI-8226 it was 37.8 µM (inactive); with M14, 60.8 µM (inactive); in the test with Hs-578T, 62.2 µM (inactive). Moreover, the GI50 is 36.7 µM (inactive) in the test on SR; 13.1 µM (inactive) in the test with CCRF-CEM; 52.5 µM (inactive) in the test with LOX IMVI; > 100 µM (inactive) in the test with OVCAR-3; 43.9 µM (inactive) in the test on OVCAR-8; 44 µM (inactive) with NCI/ADR-RES. Moreover, in the test on SF-268, the GI50 was 60 µM (inactive).
As to `CN(C(=O)C12C3C4C1C1C2C3C41C(O)C(C)(C)C)C(C)(C)C` (centres undefined), the GI50 in the test with MOLT-4, with A498, with UACC-62, with SK-MEL-28, with CAKI-1 and in the test with 786-0 was > 100 µM (inactive) in each case. In addition, the GI50 in the test on RPMI-8226, in the test with M14, in the test with CCRF-CEM, with LOX IMVI, in the test with OVCAR-3 and in the test with OVCAR-8 was > 100 µM (inactive) throughout. Moreover, the GI50 with DLD-1 and in the test on SF-268 was > 100 µM (inactive) throughout.
With `CC(=O)NNc1nc(C)c(C(=O)/C=C/c2ccc(Cl)cc2)s1`, the GI50 in the test on MOLT-4, in the test with A498, with UACC-62, in the test on SK-MEL-28, in the test with RXF 393 and with CAKI-1 was > 100 µM (inactive) throughout. In addition, the GI50 in the test with 786-0, in the test on RPMI-8226, with CCRF-CEM, in the test with LOX IMVI, with OVCAR-3 and in the test with OVCAR-8 was > 100 µM (inactive) each time. Further, the GI50 with DLD-1 and in the test on SF-268 was > 100 µM (inactive) each time.
Take `O=c1c2cc(Br)cc(Br)c2[nH]c(=S)n1-c1ccccc1`: the GI50 in the test with A498 was > 100 µM (inactive); in the test with UACC-62, 91.2 µM (inactive); in the test with SK-MEL-28, 50.7 µM (inactive); with CAKI-1 it was 54.5 µM (inactive); in the test with 786-0, 99.1 µM (inactive); in the test on RPMI-8226 it was 28.9 µM (inactive). The GI50 with M14 was > 100 µM (inactive); with CCRF-CEM, 42.2 µM (inactive); in the test with LOX IMVI, 75.2 µM (inactive); in the test on OVCAR-3, 60.1 µM (inactive); in the test with OVCAR-8, 63 µM (inactive); in the test with DLD-1, > 100 µM (inactive). In addition, the GI50 in the test with SF-268 was 52.4 µM (inactive).
For the compound `CCOC(=O)NC(=O)c1cn(CCCO)c(=O)[nH]c1=O`, the GI50 in the test on MOLT-4, in the test on A498, in the test with UACC-62, in the test on SK-MEL-28, in the test on CAKI-1 and in the test on 786-0 was > 100 µM (inactive) in each case. Besides, the GI50 with RPMI-8226, in the test with M14, in the test on CCRF-CEM, in the test with LOX IMVI, with OVCAR-3 and with OVCAR-8 was > 100 µM (inactive) each time. Further, the GI50 in the test on DLD-1 and in the test with SF-268 was > 100 µM (inactive) each time.
With `CC(C(=O)c1ccccc1)C1(O)C(=O)Nc2ccc(Cl)cc21` (centres undefined), the GI50 was > 100 µM (inactive) in the test on A498; 42.2 µM (inactive) with UACC-62; > 100 µM (inactive) in the test on SK-MEL-28; > 100 µM (inactive) in the test with RXF 393; > 100 µM (inactive) with CAKI-1; 40.3 µM (inactive) with 786-0. Besides, the GI50 in the test with RPMI-8226 is 48 µM (inactive); in the test on M14, > 100 µM (inactive); in the test on LOX IMVI, 50.6 µM (inactive); in the test on OVCAR-3, 37.4 µM (inactive); in the test with OVCAR-8, > 100 µM (inactive); with DLD-1 it was > 100 µM (inactive). In addition, in the test on SF-268, the GI50 was > 100 µM (inactive).
With `O=C1Nc2ccccc2/C1=N/NC(=O)c1ccccc1O`, the GI50 with MOLT-4 is 29 µM (inactive); in the test with A498, 23.5 µM (inactive); in the test on UACC-62 it was 36.1 µM (inactive); with SK-MEL-28, 60.5 µM (inactive); in the test on RXF 393, 16.6 µM (inactive); in the test on 786-0, 53.3 µM (inactive). The GI50 is 56.5 µM (inactive) with RPMI-8226; 50.1 µM (inactive) in the test with M14; 33.4 µM (inactive) in the test with CCRF-CEM; 48.4 µM (inactive) with LOX IMVI; 85.3 µM (inactive) in the test on OVCAR-3; 44.5 µM (inactive) in the test with OVCAR-8. Further, the GI50 with DLD-1 was 29.3 µM (inactive); in the test on SF-268, 44.4 µM (inactive).
On to `CC(OC(C)(C)C)C(NC(=O)OCC1c2ccccc2-c2ccccc21)C(=O)NC(Cc1ccccc1)C(=O)OCc1ccccc1` (centres undefined) (Fmoc-Thr(tBu)-Phe-OBn; configuration not given here), for which the GI50 is > 48.4 µM (inactive) in the test on MDA-MB-231; > 61.9 µM (inactive) in the test on MOLT-4; > 100 µM (inactive) in the test with MDA-N; > 100 µM (inactive) in the test with A498; > 100 µM (inactive) in the test on UACC-62; > 100 µM (inactive) with SK-MEL-28. The GI50 in the test with RXF 393 was > 100 µM (inactive); in the test on CAKI-1, > 100 µM (inactive); with 786-0, > 100 µM (inactive); in the test on RPMI-8226, > 71.8 µM (inactive); in the test with M14 it was > 100 µM (inactive); in the test on Hs-578T, > 100 µM (inactive). In addition, the GI50 was > 87.9 µM (inactive) in the test with SR; > 100 µM (inactive) with CCRF-CEM; > 100 µM (inactive) in the test on LOX IMVI; > 100 µM (inactive) in the test on OVCAR-3; > 100 µM (inactive) in the test with OVCAR-8; > 100 µM (inactive) in the test with NCI/ADR-RES. Also, the GI50 in the test on SF-268 is > 100 µM (inactive).
For the compound `Cc1cc2cc3cc(C)c(N)cc3nc2cc1N` [ACRIDINE YELLOW], the GI50 in the test on MDA-MB-231 is 0.211 µM (active); with MOLT-4, 0.237 µM (active); in the test on MDA-N, 1.57 µM (inactive); with A498, 0.619 µM (active); in the test with UACC-62, 0.942 µM (active); with SK-MEL-28 it was 1.51 µM (inactive). The GI50 in the test with RXF 393 was 1.15 µM (inactive); in the test with CAKI-1, 0.791 µM (active); with 786-0, 0.416 µM (active); in the test with RPMI-8226 it was 0.217 µM (active); in the test on M14 it was 3.53 µM (inactive); in the test on Hs-578T it was 1.75 µM (inactive). The GI50 in the test on SR is 0.209 µM (active); in the test on CCRF-CEM, 0.383 µM (active); in the test on LOX IMVI, 0.478 µM (active); in the test on OVCAR-3, 0.522 µM (active); in the test on OVCAR-8, 0.518 µM (active); in the test with NCI/ADR-RES, 2.13 µM (inactive). Besides, the GI50 in the test with SF-268 is 0.593 µM (active).
